The record followed here is patent publication US6673937B2, “Syntheses and methods of use of new antimitotic agents” (The University of Pittsburgh, priority 2000, dated 2004).

Structures are written as SMILES.

One experiment relates to tsFT210 cells. The experiment can be described thus: Flow cytometry, G1 transition in tsFT210 cells. The class given is cell-based, mouse. The note with it: 5 or 10 μM, additional 6 hours. (In general: In flow cytometry, cells or beads pass a laser one at a time.)
Another experiment has as its system Cdk1. The experiment can be described thus: Western blotting for Cdk1 phosphorylation status in tsFT210 cells. The note with it: 10 or 20 μM, 6 hours. The class given is cell-based, mouse. Here is the method:
tsFT210 cells were harvested using the same procedure for cell synchronizing and drug exposure as described above for the G2/M flow cytometric analysis. The protein lysates were analyzed by Western blotting for Cdk1 as described previously (Tamura K, Southwick EC, Kerns J, Rosi K, Carr BI, Wilcox C and Lazo JS (2000) Cdc25 inhibition and cell cycle arrest by a synthetic thioalkyl vitamin K analogue. Cancer Res 60:1317-1325.). The inventors used Cdk1 isolated from human MCF-7 cells to assay for in vitro inhibition of enzyme activity because of available antibodies and convenience. Asynchronous cells grown at 37° C. in 5% CO2 in DMEM containing 10% fetal bovine serum were treated with lysis buffer and harvested as previously described (Vogt A, Wang AS, Johnson CS, Fabisiak JP, Wipf P and Lazo JS (2000) In vivo antitumor activity and induction of insulin-like growth factor-1 resistant apoptosis by SC-ααδ9. J Pharmacol Exptl Therap 292:530-537.). Cdk1 kinase activity assay was performed as previously described (Yu L, Orlandi L, Wang P, Orr MS, Senderowicz AM, Sausville EA, Silvestrini R, Watanabe N, Piwnica-Worms H, O° Connor PM (1998) UCN-01 arogates G2 arrest through a Cdc2-dependent pathway that is associated with inactivation of the WeelHu kinase and activation of the Cdc25C phosphatase. J Biol Chem 273: 33455-33464.). […] Histone H1 was separated from other proteins by SDS-PAGE and analyzed for incorporation of radioactive phosphate with a Molecular Dynamics STORM 860 Phospholmager (Sunnyvale, CA).
The major controlling molecule for G2/M transition is the cyclin dependent kinase, Cdk1, whose cellular activity is tightly regulated by phosphorylation (Pines J (1999) Four-dimensional control of the cell cycle. Nature Cell Biol 1:E73-79., Hunter T and Pines J (1994) Cyclins and cancer II: cyclin D and CDK inhibitors come of age. Cell 79:573-582). […] The protein lysates were analyzed by Western blotting for Cdk1 content and phosphorylation status as described elsewhere herein. […]
In general terms: A western blot detects proteins with antibodies after separation by electrophoresis.

The next experiment relates to recombinant Cdc25. The experiment can be described thus: In vitro inhibition of recombinant Cdc25. The note with it: 30 μM, data not shown. The class given is biochemical.
A further experiment addresses VHR (Homo sapiens, UniProt P51452). The experiment can be described thus: In vitro inhibition of VHR. The class given is biochemical. The note with it: 30 μM, data not shown.
The next experiment deals with bovine brain tubulin. The experiment can be described thus: GTP-induced tubulin assembly (turbidity). The class given is biochemical. The note with it: 40 μM. How it is done: Tubulin without microtubule-associated proteins was isolated from fresh bovine brains (Hamel E and Lin CM (1984). Separation of active tubulin and microtubule-associated proteins by ultracentrifugation and isolation of a component causing the formation of microtubule bundles. Biochemistry 23:4173-4184). Inhibition of assembly reactions was carried out as described previously (Verdier-Pinard P, Lai J-Y, Yoo H-D, Yu J, Marquez B, Nagle DG, Nambu M, White JD, Falck JR, Gerwick WH, Day BW and Hamel E (1998) Structure-activity analysis of the interaction of curacin A, the potent colchicine site antimitotic agent, with tubulin and effects of analogs on the growth of MCF-7 breast cancer cells. Mol Pharmacol 53:62-76.).
(§1) The inventors examined the ability of SR-7 to alter tubulin polymerization or depolymerization in vitro. FIG. 28, Panel A. Compounds (predissolved in DMSO) were preincubated with tubulin containing monosodium glutamate at 30 ° C. for 15 min. Samples were cooled to 0 ° C. and GTP was added. Samples were placed in a temperature-controlled multi-cuvette holder of a spectrophotometer held at 0 ° C. Baselines were established and temperature was rapidly raised to 30 ° C. Turbidity development in the cuvettes was measured at 350 nm. FIG. 28, Panel B. Compounds were added to the tubulin plus monosodium glutamate mixture at 0 ° C., placed in the spectrophotometer and temperature was raised to 30 ° C. Addition of 0.4 mM GTP to isolated bovine brain tubulin produced robust polymerization that began to plateau approximately 20 min after microtubule assembly commenced (Panel A).

For a further experiment, the system named is bovine tubulin. The experiment can be described thus: Tubulin hypernucleation without GTP. The class given is biochemical. The note with it: in vitro. How it is done:
as §1

Sequence of VHR (P51452 whole entry, species assumed): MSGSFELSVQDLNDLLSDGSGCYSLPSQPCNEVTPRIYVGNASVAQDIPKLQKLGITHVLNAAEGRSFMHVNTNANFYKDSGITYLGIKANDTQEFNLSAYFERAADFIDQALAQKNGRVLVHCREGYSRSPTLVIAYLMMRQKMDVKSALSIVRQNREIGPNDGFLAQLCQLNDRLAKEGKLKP

For `O=C1C=CC2(Oc3cccc4cccc(c34)O2)c2cccc(OCc3ccco3)c21` [SR-7, 8-(furan-2-ylmethoxy)-1-oxo-1,4-dihydronaphthalene-4-spiro-2′-naphto [1″,8″-de][1′,3′] dioxin], in the experiment on tsFT210 cells, the G1 transition entry is reported as “not delayed at G1”. In addition, the Cdk1 phosphorylation status entry with Cdk1 is reported as “Cdk1 was completely dephosphorylated”. For the same molecule, in the experiment with recombinant Cdc25, the “inhibition of recombinant Cdc25 activity” value is on record as “no inhibition”. At VHR, the “inhibition of VHR activity” value was “no inhibition”. In the experiment on bovine brain tubulin, the “inhibition of tubulin assembly” value was “only moderate inhibition of tubulin assembly”. In the experiment with bovine tubulin, the hypernucleation of tubulin result is on record as “failed in vitro to hypernucleate bovine tubulin”.
